Structures can show the parent of a compound that is named as a salt. Where two headings read alike, the source gives them in different places.
Assays:
[1] = tested on: Staphylococcus aureus (ATCC25923); experiment: MIC, broth microdilution (CLSI), Staphylococcus aureus ATCC25923; conditions: Staphylococcus aureus, ATCC25923, read-out: S. aureus ATCC 25923 MIC
[2] = tested on: Staphylococcus aureus subsp. aureus (ATCC29213); experiment: MIC, broth microdilution (CLSI), Staphylococcus aureus ATCC29213; type: cell-based; conditions: Staphylococcus aureus
[3] = tested on: Escherichia coli (ATCC25922); experiment: MIC, broth microdilution (CLSI), Escherichia coli; conditions: Escherichia coli, ATCC25922, read-out: E. coli ATCC 25922 MIC, Table XIII
[4] = tested on: E. coli RNase P RNA, M1 RNA; experiment: Inhibition of bacterial RNase P activity, IC50 determination (cleavage of pATSerUG by M1 RNA); type: biochemical; conditions: NI: No inhibition
[5] = ATCC29213, Table XIII, read-out: S. aureus ATCC 29213 MIC
[6] = ATCC29213, read-out: S. aureus ATCC 29213 MIC, Table XIII

| Compound | MIC [1] | MIC [2, 5] | MIC [3] | IC50 [4] | MIC [2, 6] | IC50 ([4]; hydrochloride salt) |
| --- | --- | --- | --- | --- | --- | --- |
| Cc1cccc(C(CC(=O)NC2CCNCC2)c2cn(CCC3CCCCC3)c3ccccc23)c1.Cl (stereo not drawn) [Compound 109, 3-(1-(2-cyclohexylethyl)-1H-indol-3-yl)-N-(piperidin-4-yl)-3-(m-tolyl)propanamide hydrochloride salt] | 4 µg/mL | 4 µg/mL | 128 µg/mL | 3.7 µM | – | – |
| Cl.c1ccc(-c2ccc(CNCCc3c[nH]c4ccccc34)cc2)cc1 [Compound 24, N-([1,1′-biphenyl]-4-ylmethyl)-2-(1H-indol-3-yl)ethan-1-amine hydrochloride salt] | 6 µg/mL | 6 µg/mL | 46 µg/mL | – | – | – |
| Cc1cccc(C(CCNC2CCNCC2)c2cn(CC3CCOCC3)c3ccc(Br)cc23)c1 (stereo not drawn) [Compound 293, N-(3-(5-bromo-1-((tetrahydro-2H-pyran-4-yl)methyl)-1H-indol-3-yl)-3-(m-tolyl)propyl) piperidin-4-amine hydrochloride salt] | 5 µg/mL | – | 4 µg/mL | 70 µM | 8 µg/mL | – |
| Cc1cccc(-c2ccc3c(c2)c(C2CCCC(NC4CCNCC4)C2)cn3C2CCCCC2)c1 (stereo not drawn) [Compound 396, N-(3-(1-cyclohexyl-5-(m-tolyl)-1H-indol-3-yl)cyclohexyl)piperidin-4-amine hydrochloride salt] | – | – | 4 µg/mL | 12 µM | 2 µg/mL | – |
| N#Cc1ccc2c(C(CCNC3CCNCC3)c3cccc(OC(F)(F)F)c3)cn(C3CCCCC3)c2c1 (stereo not drawn) [Compound 414, 1-cyclohexyl-3-(3-(piperidin-4-ylamino)-1-(3-(trifluoromethoxy)phenyl)propyl)-1H-indole-6-carbonitrile hydrochloride salt] | – | – | 8 µg/mL | 16 µM | 4 µg/mL | – |
| Cc1cccc(CC(CCNC2CCNCC2)c2cn(C3CCCCC3)c3ccccc23)c1 (stereo not drawn) [Compound 418, N-(3-(1-cyclohexyl-1H-indol-3-yl)-4-(m-tolyl)butyl)piperidin-4-amine hydrochloride salt] | – | – | 4 µg/mL | 17 µM | 8 µg/mL | – |
| Cc1cccc(C(CCNCC2CNCCO2)c2cn(CC3CCCCC3)c3ccccc23)c1 (stereo not drawn) [Compound 288, 3-(1-(cyclohexylmethyl)-1H-indol-3-yl)-N-(morpholin-2-ylmethyl)-3-(m-tolyl)propan-1-amine hydrochloride salt] | 4 µg/mL | – | 4 µg/mL | 52 µM | 128 µg/mL | – |
| NC1CCC(NCCC(c2ccc(F)c(F)c2)c2cn(CC3CCCCC3)c3ccccc23)CC1 [Compound 161, (1S,4S)-N1-(3-(1-(cyclohexylmethyl)-1H-indol-3-yl)-3-(3,4-difluorophenyl)propyl) cyclohexane-1,4-diamine hydrochloride salt] | 2 µg/mL | 2 µg/mL | 2 µg/mL | 12 µM | – | – |
| NC1CCC(NCCC(c2cccc(OC(F)(F)F)c2)c2cn(C3CCCCC3)c3ccccc23)CC1 [Compound 393, (1S,4S)- -N1-(3-(1-cyclohexyl-1H-indol-3-yl)-3-(3-(trifluoromethoxy)phenyl)propyl)cyclohexane-1,4-diamine hydrochloride salt] | – | – | 8 µg/mL | – | 4 µg/mL | 16 µM |
| NCCCNC1CCCC(c2cn(C3CCCCC3)c3ccc(-c4cccc(OC(F)(F)F)c4)cc23)C1 (stereo not drawn) [Compound 404, N1-(3-(1-cyclohexyl-5-(3-(trifluoromethoxy)phenyl)-1H-indol-3-yl)cyclohexyl)propane-1,3-diamine hydrochloride salt] | – | – | 8 µg/mL | 4.8 µM | 4 µg/mL | – |

The next lines start with results.

| MIC [1] | MIC [2, 5] | MIC [3] | IC50 [4] | Compound | MIC [2, 6] | IC50 ([4]; hydrochloride salt) |
| --- | --- | --- | --- | --- | --- | --- |
| > 512 µg/mL | > 128 µg/mL | > 128 µg/mL | 79 µM | Cl.O=C(CCC1C(=O)N(CC2CCCCC2)c2ccccc21)NC1CCNCC1 (stereo not drawn) [Compound 275, 3-(1-(cyclohexylmethyl)-2-oxoindolin-3-yl)-N-(piperidin-4-yl) propanamide hydrochloride salt] | – | – |
| 2 µg/mL | 64 µg/mL | 16 µg/mL | 15 µM | Cc1cccc(C(CCNCC2CNCCO2)c2cn(CC3CCCCC3)c3ccc(Br)cc23)c1.Cl (stereo not drawn) [Compound 289, 3-(5-bromo-1-(cyclohexylmethyl)-1H-indol-3-yl)-N-(morpholin-2-ylmethyl)-3-(m-tolyl)propan-1-amine hydrochloride salt] | – | – |
| 5 µg/mL | 8 µg/mL | 8 µg/mL | 7 µM | Cl.N[C@H]1CC[C@H](NC(=O)CC(c2cncc3ccccc23)c2cn(CC3CCCCC3)c3ccccc23)CC1 (stereo partly drawn) [Compound 191, N-((1R,4R)-4-aminocyclohexyl)-3-(1-(cyclohexylmethyl)-1H-indol-3-yl)-3-(isoquinolin-4-yl)propanamide hydrochloride salt] | – | – |
| 4 µg/mL | 8 µg/mL | 8 µg/mL | 9.6 µM | Cc1cccc(C(CCN[C@H]2CC[C@H](N)CC2)c2cn(CC3CCCC3)c3ccccc23)c1 (stereo partly drawn) [Compound 164, (1R,4R)-N1-(3-(1-(cyclopentylmethyl)-1H-indol-3-yl)-3-(m-tolyl)propyl)cyclohexane-1,4-diamine hydrochloride salt] | – | – |
| – | 2 µg/mL | 4 µg/mL | 4.4 µM | CCCCCCCCn1cc(C(CCNCCCN)C2CCCCC2)c2cc(C#N)ccc21.Cl.Cl (stereo not drawn) [Compound 427, 3-(3-((3-aminopropyl)amino)-1-cyclohexylpropyl)-1-octyl-1H-indole-5-carbonitrile hydrochloride salt] | – | – |
| – | 8 µg/mL | 4 µg/mL | 52 µM | Cl.Cl.NCCCNCCC(c1cccc(F)c1)c1cn(C2CCCCC2)c2ccccc12 (stereo not drawn) [Compound 344, N1-(3-(1-cyclohexyl-1H-indol-3-yl)-3-(3-fluorophenyl)propyl) propane-1,3-diamine hydrochloride salt] | – | – |
| – | 4 µg/mL | 16 µg/mL | 39 µM | Cc1cccc(C(CCN[C@H]2CC[C@H](N)CC2)c2cn(C3CCCCC3)c3ccc(-c4ccnn4C)cc23)c1.Cl.Cl (stereo partly drawn) [Compound 409, (1R,4R)-N1-(3-(1-cyclohexyl-5-(1-methyl-1H-pyrazol-5-yl)-1H-indol-3-yl)-3-(m-tolyl)propyl)cyclohexane-1,4-diamine hydrochloride salt] | – | – |
| – | 16 µg/mL | > 128 µg/mL | 120 µM | Cc1cccc(C(CCNCCCN)c2cn(C3CCNCC3)c3ccccc23)c1.Cl.Cl.Cl (stereo not drawn) [Compound 322, N1-(3-(1-(piperidin-4-yl)-1H-indol-3-yl)-3-(m-tolyl)propyl)propane-1,3-diamine hydrochloride salt] | – | – |
| 34 µg/mL | 32 µg/mL | > 128 µg/mL | 38 µM | Cc1cccc(C(CC(=O)NC2CCNCC2)c2cn(CC3CCCCC3)c3ccc(C(=O)O)cc23)c1.Cl (stereo not drawn) [Compound 297, 1-(cyclohexylmethyl)-3-(3-oxo-3-(piperidin-4-ylamino)-1-(m-tolyl)propyl)-1H-indole-5-carboxylic acid hydrochloride salt] | – | – |
| – | 2 µg/mL | 4 µg/mL | 8.5 µM | Cc1cccc(C(CCNCCCN)c2cn(CC3CCCCC3)c3ccc([N+](=O)[O-])cc23)c1 (stereo not drawn) [Compound 424, N1-(3-(1-cyclohexylmethyl)-5-nitro-1H-indol-3-yl)-3-(m-tolyl)propyl)propane-1,3-diamine hydrochloride salt] | – | – |
| – | 4 µg/mL | 4 µg/mL | 6.3 µM | Cl.Cl.NCCCNCCCc1cn(C2CCCCC2)c2ccc(C3CCCCC3)cc12 [Compound 399, N1-(3-(1,5-dicyclohexyl-1H-indol-3-yl)propyl)propane-1,3-diamine hydrochloride salt] | – | – |
| – | 2 µg/mL | 8 µg/mL | 12 µM | Cc1cccc(C(CCNC2CCC(N)CC2)c2cn(CC3CCCCC3)c3ccc([N+](=O)[O-])cc23)c1 [Compound 425, (1S,4S)-N1-(3-(1-(cyclohexylmethyl)-5-nitro-1H-indol-3-yl)-3-(m-tolyl)propyl) cyclohexane-1,4-diamine hydrochloride salt] | – | – |

— US20210246115A1 (Bioimics AB, priority 2017, published 2021)
